In ChEMBL document CHEMBL3045057, “2-D QSAR studies of steroidal natural products oleanic acid and their semisynthetic derivatives as potent protein tyrosine phosphatase 1B inhibitors” (Med Chem Res, 2012):

Target: T1, Tyrosine-protein phosphatase non-receptor type 1 (Homo sapiens, UniProt P18031)
T1 sequence (P18031 whole entry): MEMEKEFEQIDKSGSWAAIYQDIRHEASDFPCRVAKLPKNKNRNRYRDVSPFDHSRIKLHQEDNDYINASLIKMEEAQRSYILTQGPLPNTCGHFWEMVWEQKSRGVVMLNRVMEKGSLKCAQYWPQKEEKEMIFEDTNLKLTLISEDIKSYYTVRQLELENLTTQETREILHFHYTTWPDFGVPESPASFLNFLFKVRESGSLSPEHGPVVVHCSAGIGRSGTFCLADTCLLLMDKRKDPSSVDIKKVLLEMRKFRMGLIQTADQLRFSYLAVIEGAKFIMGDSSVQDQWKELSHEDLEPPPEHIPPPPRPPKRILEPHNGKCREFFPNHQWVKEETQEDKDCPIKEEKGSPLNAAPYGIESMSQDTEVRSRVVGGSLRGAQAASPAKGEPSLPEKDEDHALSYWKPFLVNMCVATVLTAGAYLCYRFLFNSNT
Experiment: Inhibition of PTP1B (unknown origin)

Row | Structure (SMILES) | IC50 (read-out: IC50) [nM] | IC50 (read-out: pIC50 (converted)) [nM]
1 | CC1(C)CC[C@]2(C(=O)O)CC[C@]3(C)C(=CC[C@@H]4[C@@]5(C)CC[C@H](Cc6ccccc6)C(C)(C)[C@@H]5CC[C@]43C)[C@@H]2C1 | 2670 | 2670
2 | CC1(C)CC[C@]2(C(=O)O)CC[C@]3(C)C(=CC[C@@H]4[C@@]5(C)CC[C@H](Cc6ccccc6C(=O)O)C(C)(C)[C@@H]5CC[C@]43C)[C@@H]2C1 | 2720 | 2720
3 | CC1(C)CC[C@]2(CCCCC(=O)NC(Cc3ccccc3)C(=O)O)CC[C@]3(C)C(=CC[C@@H]4[C@@]5(C)CC[C@H](OCc6ccc(C(=O)O)cc6)C(C)(C)[C@@H]5CC[C@]43C)[C@@H]2C1 (some centres not stated) | 150 | 150
4 | COc1ccc(CC(NC(=O)C[C@]23CCC(C)(C)C[C@H]2C2=CC[C@@H]4[C@@]5(C)CC[C@H](O)C(C)(C)[C@@H]5CC[C@@]4(C)[C@]2(C)CC3)C(=O)O)cc1OC (some centres not stated) | 820 | 820
5 | COc1cc(CC(NC(=O)C[C@]23CCC(C)(C)C[C@H]2C2=CC[C@@H]4[C@@]5(C)CC[C@H](O)C(C)(C)[C@@H]5CC[C@@]4(C)[C@]2(C)CC3)C(=O)O)cc(OC)c1 (some centres not stated) | 630 | 630
6 | Cc1ccccc1CC(NC(=O)C[C@]12CCC(C)(C)C[C@H]1C1=CC[C@@H]3[C@@]4(C)CC[C@H](O)C(C)(C)[C@@H]4CC[C@@]3(C)[C@]1(C)CC2)C(=O)O (some centres not stated) | 550 | 550
7 | Cc1ccc(CC(NC(=O)C[C@]23CCC(C)(C)C[C@H]2C2=CC[C@@H]4[C@@]5(C)CC[C@H](O)C(C)(C)[C@@H]5CC[C@@]4(C)[C@]2(C)CC3)C(=O)O)cc1 (some centres not stated) | 650 | 650
8 | COc1ccccc1CC(NC(=O)C[C@]12CCC(C)(C)C[C@H]1C1=CC[C@@H]3[C@@]4(C)CC[C@H](O)C(C)(C)[C@@H]4CC[C@@]3(C)[C@]1(C)CC2)C(=O)O (some centres not stated) | 530 | 530
9 | COc1cccc(CC(NC(=O)C[C@]23CCC(C)(C)C[C@H]2C2=CC[C@@H]4[C@@]5(C)CC[C@H](O)C(C)(C)[C@@H]5CC[C@@]4(C)[C@]2(C)CC3)C(=O)O)c1 (some centres not stated) | 520 | 520
10 | COc1ccc(CC(NC(=O)C[C@]23CCC(C)(C)C[C@H]2C2=CC[C@@H]4[C@@]5(C)CC[C@H](O)C(C)(C)[C@@H]5CC[C@@]4(C)[C@]2(C)CC3)C(=O)O)cc1 (some centres not stated) | 600 | 600
11 | CC1(C)CC[C@]2(CC(=O)NC(Cc3ccc4c(c3)OCO4)C(=O)O)CC[C@]3(C)C(=CC[C@@H]4[C@@]5(C)CC[C@H](O)C(C)(C)[C@@H]5CC[C@]43C)[C@@H]2C1 (some centres not stated) | 440 | 440
12 | COc1cccc(CC(NC(=O)C[C@]23CCC(C)(C)C[C@H]2C2=CC[C@@H]4[C@@]5(C)CC[C@H](O)C(C)(C)[C@@H]5CC[C@@]4(C)[C@]2(C)CC3)C(=O)O)c1OC (some centres not stated) | 660 | 660
13 | CC1(C)CC[C@]2(C(=O)OCCCCCCCCCCCCC(=O)O)CC[C@]3(C)C(=CC[C@@H]4[C@@]5(C)CC[C@H](O)C(C)(C)[C@@H]5CC[C@]43C)[C@@H]2C1 | 590 | 590
14 | CC1(C)CC[C@]2(CC(=O)NC(Cc3ccccc3)C(=O)O)CC[C@]3(C)C(=CC[C@@H]4[C@@]5(C)CC[C@H](O)C(C)(C)[C@@H]5CC[C@]43C)[C@@H]2C1 (some centres not stated) | 570 | 570
15 | CC1(C)CC[C@]2(CC(=O)NC(Cc3cnc[nH]3)C(=O)O)CC[C@]3(C)C(=CC[C@@H]4[C@@]5(C)CC[C@H](O)C(C)(C)[C@@H]5CC[C@]43C)[C@@H]2C1 (some centres not stated) | 4620 | 4620
16 | CC1(C)CC[C@]2(CC(=O)NC(CC3=CCc4ccccc43)C(=O)O)CC[C@]3(C)C(=CC[C@@H]4[C@@]5(C)CC[C@H](O)C(C)(C)[C@@H]5CC[C@]43C)[C@@H]2C1 (some centres not stated) | 590 | 590

Row | Structure (SMILES) | IC50 (read-out: IC50) [nM] | IC50 (read-out: pIC50 (converted)) [nM]
17 | CSCCC(NC(=O)C[C@]12CCC(C)(C)C[C@H]1C1=CC[C@@H]3[C@@]4(C)CC[C@H](O)C(C)(C)[C@@H]4CC[C@@]3(C)[C@]1(C)CC2)C(=O)O (some centres not stated) | 550 | 550
18 | CC1(C)CC[C@]2(CC(=O)NC(Cc3ccccc3Cl)C(=O)O)CC[C@]3(C)C(=CC[C@@H]4[C@@]5(C)CC[C@H](O)C(C)(C)[C@@H]5CC[C@]43C)[C@@H]2C1 (some centres not stated) | 560 | 560
19 | CC1(C)CC[C@]2(CC(=O)NC(Cc3cccc(Cl)c3)C(=O)O)CC[C@]3(C)C(=CC[C@@H]4[C@@]5(C)CC[C@H](O)C(C)(C)[C@@H]5CC[C@]43C)[C@@H]2C1 (some centres not stated) | 510 | 510
20 | CC1(C)CC[C@]2(CC(=O)NC(Cc3ccc(Cl)cc3)C(=O)O)CC[C@]3(C)C(=CC[C@@H]4[C@@]5(C)CC[C@H](O)C(C)(C)[C@@H]5CC[C@]43C)[C@@H]2C1 (some centres not stated) | 610 | 610
21 | CC1(C)CC[C@]2(CC(=O)NC(Cc3ccc(F)cc3)C(=O)O)CC[C@]3(C)C(=CC[C@@H]4[C@@]5(C)CC[C@H](O)C(C)(C)[C@@H]5CC[C@]43C)[C@@H]2C1 (some centres not stated) | 570 | 570
22 | CC1(C)CC[C@]2(CC(=O)NC(Cc3ccc([N+](=O)[O-])cc3)C(=O)O)CC[C@]3(C)C(=CC[C@@H]4[C@@]5(C)CC[C@H](O)C(C)(C)[C@@H]5CC[C@]43C)[C@@H]2C1 (some centres not stated) | 450 | 450
23 | CC1(C)CC[C@]2(C(=O)OCCC(=O)O)CC[C@]3(C)C(=CC[C@@H]4[C@@]5(C)CC[C@H](O)C(C)(C)[C@@H]5CC[C@]43C)[C@@H]2C1 | 2100 | 2100
24 | CC1(C)CC[C@]2(C(=O)OCCCCC(=O)O)CC[C@]3(C)C(=CC[C@@H]4[C@@]5(C)CC[C@H](O)C(C)(C)[C@@H]5CC[C@]43C)[C@@H]2C1 | 1330 | 1330
25 | CC1(C)CC[C@]2(C(=O)OCCCCCCC(=O)O)CC[C@]3(C)C(=CC[C@@H]4[C@@]5(C)CC[C@H](O)C(C)(C)[C@@H]5CC[C@]43C)[C@@H]2C1 | 880 | 880
26 | CC1(C)CC[C@]2(C(=O)OCCCCCCCCC(=O)O)CC[C@]3(C)C(=CC[C@@H]4[C@@]5(C)CC[C@H](O)C(C)(C)[C@@H]5CC[C@]43C)[C@@H]2C1 | 780 | 780
27 | CC1(C)CC[C@]2(C(=O)OCCCCCCCCCCC(=O)O)CC[C@]3(C)C(=CC[C@@H]4[C@@]5(C)CC[C@H](O)C(C)(C)[C@@H]5CC[C@]43C)[C@@H]2C1 | 720 | 720
28 | CC1(C)CC[C@]2(C(=O)NC(Cc3ccccc3)C(=O)O)CC[C@]3(C)C(=CC[C@@H]4[C@@]5(C)CC[C@H](O)C(C)(C)[C@@H]5CC[C@]43C)[C@@H]2C1 (some centres not stated) | 3310 | 3310
29 | CC1(C)CC[C@]2(C(=O)NC(CCC(=O)O)C(=O)O)CC[C@]3(C)C(=CC[C@@H]4[C@@]5(C)CC[C@H](O)C(C)(C)[C@@H]5CC[C@]43C)[C@@H]2C1 (some centres not stated) | 16400 | 16400
30 | CC1(C)CC[C@]2(C(=O)O)CC[C@]3(C)C(=CC[C@@H]4[C@@]5(C)CC[C@H](OCc6ccccc6C(=O)O)C(C)(C)[C@@H]5CC[C@]43C)[C@@H]2C1 | 4580 | 4580
31 | CC1(C)CC[C@]2(C(=O)Nc3ccc(C(=O)O)cc3)CC[C@]3(C)C(=CC[C@@H]4[C@@]5(C)CC[C@H](O)C(C)(C)[C@@H]5CC[C@]43C)[C@@H]2C1 | 3090 | 3090
